Data on eleven compounds can be found in patent publication US12358904B2, “Inhibitors of TYK2” (Atomwise Inc., priority 2023, dated 2025).

Structures are written as SMILES.

Experiment [1] deals with T1, TYK2-JH2 (Homo sapiens, UniProt P29597).
T1 construct: TYK JH2 enzyme mix (ChemPartnec CP20210818A-BV); purchased ChemPartner CP20210818A-BV
In words: TYK2-JH2 HTRF binding assay (ligand efficiency). The following applies: calculated from IC50 of the TYK-JH2 binding assay (Equation 1). As for the experimental part:
The following example describes the TYK2-JH2 HTRF binding assay used to determine the ligand efficiency of the TYK2 inhibitors.
To calculate ligand efficiency, Equation 1 is applied:
[formula] in which IC50 comes from the binding assay used to determine compound potency.
TYK JH2 enzyme mix (ChemPartnec CP20210818A-BV), tracer (ChemPartnec CP-0029472-051) and mAb Anti-6HIS Tb cryptate Gold (Cisbio: Cat No. 61H12TLA) mix were prepared in assay buffer (10 mM MgCl2, 20 mM HEPES pH 7.5, 0.01% Triton X-100, 1 mM DTT). Compounds diluted in DMSO (Final Concentrations 0.1 to 0.000005 [μM]) and enzyme mix (0.5 nM Final Concentration) were added to 384 well plates, briefly centrifuged and incubated at room temperature for 10 minutes. After incubation, tracer mix (Tracer-35 nM final concentration); (Mab Anti-6HIS Tb cryptate Gold-0.5× final)) was added, briefly centrifuged then incubate at room temperature 60 minutes. After incubation, plates were read by Envision TR-FRET (Ex340/Em495/520) protocol (PerkinElmer-Envision 2104 multilabel plate reader).

Experiment [2] relates to IL-12/pSTAT4. In words: IL-12 induced pSTAT4 assay in NK-92 cells. It is filed as cell-based. The following applies: Homo sapiens, NK92, IL-12 stimulation, read-out: Cellular potency (IL-12/pSTAT4). As for the experimental part: The following example describes the IL-12 induced pSTAT4 assay used to determine the cellular potency (IL-12/pSTAT4) of the TYK2 inhibitors.
NK-92 cells (human natural killer lymphoma cell line) were cultured in MEM α, nucleosides (Life Technologies, 22571020) 12.5% heat inactivated FBS (Dominique Dutscher, S1810), 12.5% heat inactivated Horse serum (Life Technologies, 26050088) and 1% Penicillin-Streptomycin (Life Technologies, 15140122), 5 ng/mL human IL-2 (R&D systems, 202-II/CF), 0.2 mM inositol (Sigma, PHR1351 lot LRAC4118), 0.1 mM β-mercaptoethanol (Life Technologies, 31350010), and 0.02 mM folic acid (Sigma, F8758).
NK-92 cells were starved overnight in starvation medium (Opti-MEM (ThermoFisher, 11058-021), 10% charcoal stripped FBS (ThermoFisher 12676-029), and 1% Penicillin (100U/ml)-Streptomycin (100 μg/ml) (ThermoFisher, ref 15140122)), then plated in a 96-well tissue culture plate (20K cells/well) prior to pre-incubation with test compounds (Final Concentration [nM] 1000 to 0.05) for 30 minutes at 37° C. Cells were stimulated with IL-12 (Final Concentration l0 ng/ml) for 30 minutes at 37° C., and terminated by addition of lysis buffer (MSD K150PAD-2). pSTAT4 (Tyr693) was detected using the Mesa Scale Discovery platform (MSD K150PAD-2), according to manufacturer's instruction. Briefly, cell lysates were added to pre-blocked plates and incubated for 1 hour at room temperature. Plates were washed and incubated with detection antibody for 1 hour at room temperature. Plates were washed and Read Buffer was added prior to measurement on the MSD (1300 MSD Quickplex SQ 120).

T1 sequence (P29597 589-875 limits assumed): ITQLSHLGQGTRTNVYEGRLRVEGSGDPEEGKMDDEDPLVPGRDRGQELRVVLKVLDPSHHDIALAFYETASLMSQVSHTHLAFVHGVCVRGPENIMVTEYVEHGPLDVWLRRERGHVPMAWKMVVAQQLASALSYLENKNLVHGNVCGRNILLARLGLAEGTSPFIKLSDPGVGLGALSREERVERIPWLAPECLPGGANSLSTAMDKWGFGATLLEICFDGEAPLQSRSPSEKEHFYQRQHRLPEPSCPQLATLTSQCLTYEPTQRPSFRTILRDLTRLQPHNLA

With `CS(=O)(=O)c1cccnc1Nc1cc(Nc2ccc(N3CCN(C4CC4)CC3)cn2)ncn1` [Compound 7, N^4-(5-(4-cyclopropylpipeiazin-1-yl) 83yridine-2-yl)-N^6-(3-(methylsulfonyl)83yridine-2-yl)pyrimidine-4,6-diamine], the “Ligand Efficiency” value in experiment [1] was “††† (†††: >0.39)”. In experiment [2], the IC50 was below 100 nM. Turning to `C[C@@H](c1ccc(Nc2cc(Nc3ncc(Cl)cc3S(C)(=O)=O)ncn2)nc1)N1CC2(COC2)C1` [Compound 14, (S)—N^4-(5-(1-(2-oxa-6-azaspiro[3.3]heptan-6-yl)ethyl) 95yridine-2-yl)-N^6-(5-chloro-3-(methylsulfonyl)95yridine-2-yl)pyrimidine-4,6-diamine], in experiment [1], the “Ligand Efficiency” value was “††† (†††: >0.39)”. The IC50 in experiment [2] was below 100 nM. For `C[C@@H](c1ccc(Nc2cc(Nc3ncccc3S(C)(=O)=O)ncn2)nc1)N1CCCC1` [Compound 15, I-N^4-(3-(methylsulfonyl)97yridine-2-yl)-N^6-(5-(1-(97yridine9797e-1-yl)ethyl)97yridine-2-yl)pyrimidine-4,6-diamine] the same measures were “††† (†††: >0.39)” and below 100 nM. For `CS(=O)(=O)c1cccnc1Nc1cc(Nc2ccc([C@@H](N3CC4(COC4)C3)C(F)(F)F)cn2)ncn1` [Compound 16, I-N^4-(3-(methylsulfonyl)98yridine-2-yl)-N^6-(5-(2,2,2-trifluoro-1-(2-oxa-6-azaspiro[3.3]heptan-6-yl)ethyl)98yridine-2-yl)pyrimidine-4,6-diamine] the same measures were “†† (††: 0.37-0.39)” and below 100 nM. For `C[C@H]1CN(C)CCN1c1ccc(Nc2cc(Nc3ncccc3S(C)(=O)=O)ncn2)nc1` [Compound 20, (S)—N^4-(5-(2,4-dimethylpiperazin-1-yl)101yridine-2-yl)-N^6-(3-(methylsulfonyl)101yridine-2-yl)pyrimidine-4,6-diamine], the “Ligand Efficiency” value in experiment [1] is “††† (†††: >0.39)”. For the same compound, in experiment [2], the IC50 is below 100 nM. In the case of `CS(=O)(=O)c1cccnc1Nc1cc(Nc2ccc(N3CCC4(CCO4)CC3)cn2)ncn1` [Compound 24, N^4-(5-(1-oxa-7-azaspiro[3.5]nonan-7-yl)104yridine-2-yl)-N^6-(3-(methylsulfonyl)104yridine-2-yl)pyrimidine-4,6-diamine], in experiment [1], the “Ligand Efficiency” value is recorded as “†† (††: 0.37-0.39)”. In experiment [2], the IC50 was below 100 nM. With `Cc1cccc(Nc2cc(Nc3ccccc3C(N)=O)nc(N)n2)n1` [Compound 55, 2-((2-amino-6-((6-methylpyridin-2-yl)amino)pyrimidin-4-yl)amino)benzamide], the “Ligand Efficiency” value in experiment [1] is on record as “†† (††: 0.37-0.39)”.

As to `Cc1cccc(Nc2cc(Nc3ccccc3S(C)(=O)=O)nc(C)n2)n1` [Compound 56, 2-methyl-N^4-(6-methylpyridin-2-yl)-N^6-(2-(methylsulfonyl)phenyl) pyrimidine-4,6-diamine], the “Ligand Efficiency” value in experiment [1] was “† (†: <0.37)”. On the same count and under the same terms, next, `Cc1cccc(Nc2cc(Nc3ccccc3S(C)(=O)=O)nc(N)n2)n1` [Compound 57, N^4-(6-methylpyridin-2-yl)-N^6-(2-(methylsulfonyl)phenyl)pyrimidine-2,4,6-triamine]: “††† (†††: >0.39)”; `CC1(Nc2ccc(Nc3cc(Nc4ncccc4S(C)(=N)=O)ncn3)nc2)COC1` (centres unmarked) [Compound 73, N^4-(5-((3-methyloxetan-3-yl)amino)166yridine-2-yl)-N^6-(3-(S-methylsulfonimidoyl)166yridine-2-yl)pyrimidine-4,6-diamine]: “††† (†††: >0.39)”. The same measure, in the same setting: next, `CC(c1ccc(Nc2ncnc(Nc3ncccc3S(C)(=O)=O)c2F)nc1)N1CC2(COC2)C1` (centres unmarked) [Compound 75, N^4-(5-(1-(2-oxa-6-azaspiro[3.3]heptan-6-yl)ethyl)168yridine-2-yl)-5-fluoro-N^6-(3-(methylsulfonyl)168yridine-2-yl)pyrimidine-4,6-diamine]: “† (†: <0.37)”.
